# What was measured:
# [1] = test system: HIV-1; details: plasma, cited from earlier work; for 4×PA-IC90: four times protein-adjusted 90% inhibitory concentration
# [2] = test system: HIV-1ADA; assay: Antiretroviral efficacy of prodrugs by HIV reverse transcriptase (RT) activity in MDM; format: cell-based; details: MDM treated 8 hours, 0.01-1000 nM, challenged with HIV-1ADA MOI 0.01; FIG. 2A
# Protocol: The DTG prodrugs M3DTG and M4DTG were studied. First, antiretroviral efficacy was determined by measurement of HIV reverse transcriptase (RT) activity. To assess antiretroviral efficacy, monocyte-derived macrophage (MDM) were treated with either M3DTG or M4DTG for 8 hours over a range of concentrations (0.01-1000 nM). Drug was dosed in 0.1% (v/v) DMSO in media. After treatment, cells were washed with PBS to remove excess of free drug and nanoparticles and the cells were cultured with fresh media, with half-media exchanges every other day. The MDM were challenged with HIV-1ADA at a MOI of 0.01 infectious viral particles/cell for up to 30 days. Progeny virion production was measured by RT activity in culture medium (Kalter, et al. (1992) J. Clin. Microbiol., 30(4):993-995).
antiretroviral activity (HIV-1 RT activity) [2],SMILES,4×PA-IC90 [1] [µg/mL],PA-IC90 ([1]; protein-adjusted 90% inhibitory concentration) [µg/mL]
–,"C[C@H]1CO[C@@H]2Cn3cc(C(=O)NCc4ccc(F)cc4F)c(=O)c(O)c3C(=O)N12 [CAB, cabotegravir]",0.66,–
–,"C[C@@H]1CCO[C@H]2Cn3cc(C(=O)NCc4ccc(F)cc4F)c(=O)c(O)c3C(=O)N12 [DTG, dolutegravir]",0.256,0.064
significant antiretroviral activity,C[C@@H]1CCO[C@H]2Cn3cc(C(=O)NCc4ccc(F)cc4F)c(=O)c(OC(=O)CCCCCCCC(=O)Oc4c5n(cc(C(=O)NCc6ccc(F)cc6F)c4=O)C[C@@H]4OCC[C@@H](C)N4C5=O)c3C(=O)N12 [M3DTG],–,–
